The term inhibition denotes the relative decrease from the control value, in per cent. Usually IC50 stands for the midpoint of a concentration-inhibition curve.

Here are results for 33 compounds from patent US20030225152A1, “3-(Arylamino)methylene-1, 3-dihydro-2h-indol-2-ones as kinase inhibitors” (priority 2001, published 2003).

Experiment [1] deals with VEGF induced increases in intracellular calcium levels in HUVEC (human umbilical vein endothelial cells). The experiment in a line: VEGF Stimulated Ca++ Signal in vitro (FLIPR). In kind it is cell-based. As to conditions: VEGF 5 ng/mL; for IC50: 0.01 to 10.0 μM. In a few lines:
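IC50 values derive from % inhibition of the VEGF (5 ng/mL) calcium response, taken as max-min fluorescence at 516 nm in Fluo-4-loaded HUVEC. Compounds (0.1% DMSO final) were added 30 min before stimulation, at 10 μM or across 0.01–10.0 μM.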

In experiment [2] the target is T1, cytoplasmic domain of the human VEGF receptor (VEGFR-2) (Homo sapiens, UniProt P35968).
T1 construct: The cytoplasmic domain of the human VEGF receptor (VEGFR-2) was expressed as a Histidine-tagged fusion protein; Histidine tag
In words: KDR Assay. Format: biochemical. Conditions: His-VEGFR-2; 3.6 μM ATP. The protocol:
The cytoplasmic domain of the human VEGF receptor (VEGFR-2) was expressed as a Histidine-tagged fusion protein following infection of insect cells using an engineered baculovirus. His-VEGFR-2 was purified to homogeneity, as determined by SDS-PAGE, using nickel resin chromatography. Kinase assays were performed in 96 well microtiter plates that were coated overnight with 30 μg of poly-Glu-Tyr (4:1) in 10 mM Phosphate Buffered Saline (PBS), pH 7.2-7.4. The plates were incubated with 1% BSA and then washed four times with PBS prior to starting the reaction. Reactions were carried out in 120 μL reaction volumes containing 3.6 μM ATP in kinase buffer (50 mM Hepes buffer pH 7.4, 20 mM MgCl2, 0.1 mM MnCl2 and 0.2 mM Na3VO4). Test compounds were reconstituted in 100% DMSO and added to the reaction to give a final DMSO concentration of 5%. Reactions were initiated by the addition 0.5 ng of purified protein. Following a ten minute incubation at 25° C., the reactions were washed four times with PBS containing 0.05% Tween-20. 100 μl of a monoclonal anti-phosphotyrosine antibody-peroxidase conjugate was diluted 1:10000 in PBS-Tween-20 and added to the wells for 30 minutes. Following four washes with PBS-Tween-20, 100 μl of O-phenylenediamine Dihydrochloride in Phosphate-citrate buffer, containing urea hydrogen peroxide, was added to the wells for 7 minutes as a colorimetric substrate for the peroxidase. The reaction was terminated by the addition of 100 μl of 2.5N H2SO4 to each well and read using a microplate ELISA reader set at 492 nm. IC50 values for compound inhibition were calculated directly from graphs of optical density (arbitrary units) versus compound concentration following subtraction of blank values.

T1 sequence (P35968 786-1356): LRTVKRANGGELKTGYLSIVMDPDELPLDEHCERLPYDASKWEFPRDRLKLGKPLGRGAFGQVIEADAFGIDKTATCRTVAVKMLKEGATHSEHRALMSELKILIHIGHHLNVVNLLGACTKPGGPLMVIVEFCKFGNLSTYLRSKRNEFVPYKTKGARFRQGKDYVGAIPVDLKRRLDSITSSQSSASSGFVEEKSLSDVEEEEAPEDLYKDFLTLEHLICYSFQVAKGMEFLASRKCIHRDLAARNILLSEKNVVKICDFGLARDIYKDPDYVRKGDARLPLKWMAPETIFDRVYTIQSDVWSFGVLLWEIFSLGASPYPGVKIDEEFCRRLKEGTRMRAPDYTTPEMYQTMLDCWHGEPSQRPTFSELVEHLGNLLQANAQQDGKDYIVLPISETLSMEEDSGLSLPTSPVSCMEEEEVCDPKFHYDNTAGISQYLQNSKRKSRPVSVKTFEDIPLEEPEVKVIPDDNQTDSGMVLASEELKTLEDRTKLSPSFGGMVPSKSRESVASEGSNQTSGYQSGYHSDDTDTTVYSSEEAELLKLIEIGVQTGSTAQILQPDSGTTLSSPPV

Take `CCc1ccc(NC=C2C(=O)Nc3ccccc32)cc1` [Example 5, 3-[(4-Ethyl-phenylamino)-methylene]-1,3-dihydro-indol-2-one]: the inhibition at 10 µM in experiment [1] (Homo sapiens) is 77.3%. Further, the IC50 in experiment [1] (Homo sapiens) stood at 1820 nM; in experiment [2], 480 nM.

Take `CCc1cccc(NC=C2C(=O)Nc3ccccc32)c1` [Example 6]: in experiment [1] (Homo sapiens), the inhibition at 10 µM was found to be 90.1% and the IC50 came to 1840 nM. This compound also gave an IC50 in experiment [2] of 520 nM.

In the case of `COc1ccc(NC=C2C(=O)Nc3ccccc32)cc1` [Example 7, 3-[(4-Methoxy-phenylamino)-methylene]-1,3-dihydro-indol-2-one], the figures for the IC50 in experiment [1], in experiment [1] (Homo sapiens) and in experiment [2] were 950 nM, ≤ 1000 nM and 690 nM, respectively. In addition, the inhibition at 10 µM in experiment [1] (Homo sapiens) was determined as 94.5%.

In the case of `O=C1Nc2ccccc2C1=CNc1cccc(O)c1` [Example 15, 3-[(3-Hydroxy-phenylamino)-methylene]-1,3-dihydro-indol-2-one], the inhibition at 10 µM in experiment [1] (Homo sapiens) was determined as 93.7%. The same compound displayed an IC50 in experiment [2] of 910 nM.

On to `O=C1Nc2cc(F)ccc2C1=CNc1ccc(OCCN2CCCCC2)cc1` [Example 253, 6-Fluoro-3-{[4-(2-piperidin-1-yl-ethoxy)-phenylamino]-methylene}-1,3-dihydro-indol-2-one], for which 170 nM corresponded to half-maximal inhibition in experiment [2] (IC50).

With `O=C1Nc2ccccc2C1=CNc1ccc(OCCN2CCCCC2)cc1` [Example 254, 3-{[4-(2-Piperidin-1-yl-ethoxy)-phenylamino]-methylene}-1,3-dihydro-indol-2-one], in experiment [2], the IC50 turned out to be 500 nM.

In experiment [2], `O=C1Nc2cc(F)ccc2C1=CNc1ccc(CN2CCCCC2)cc1` [Example 259, 6-Fluoro-3-[(4-piperidin-1-ylmethyl-phenylamino)-methylene]-1,3-dihydro-indol-2-one] had an IC50 of 300 nM.

In experiment [2], `O=C1Nc2ccc(F)cc2C1=CNc1ccc(OCCN2CCCCC2)cc1` [Example 263, 5-Fluoro-3-{[4-(2-piperidin-1-yl-ethoxy)-phenylamino]-methylene}-1,3-dihydro-indol-2-one] came in with an IC50 of 360 nM.

`CCN(CC)CCOc1ccc(NC=C2C(=O)Nc3cccc(C)c32)cc1` [Example 264, 3-{[4-(2-Diethylamino-ethoxy)-phenylamino]-methylene}-4-methyl-1,3-dihydro-indol-2-one] gave an IC50 in experiment [2] of 70 nM.

In experiment [2], `Cc1cccc2c1C(=CNc1ccc(OCCN3CCCC3)cc1)C(=O)N2` [Example 270, 4-Methyl-3-{[4-(2-pyrrolidin-1-yl-ethoxy)-phenylamino]-methylene}-1,3-dihydro-indol-2-one] came in with an IC50 of 110 nM.

In experiment [2], `O=C1Nc2ccccc2C1=CNc1ccc(OCCN2CCCC2)cc1` [Example 272, 3-{[4-(2-Pyrrolidin-1-yl-ethoxy)-phenylamino]-methylene}-1,3-dihydro-indol-2-one] yielded an IC50 of 460 nM.

In turn, `O=C1Nc2ccc(F)cc2C1=CNc1ccc(OCCN2CCCC2)cc1` [Example 274, 5-Fluoro-3-{[4-(2-pyrrolidin-1-yl-ethoxy)-phenylamino]-methylene}-1,3-dihydro-indol-2-one] showed an IC50 in experiment [2] of 210 nM.

The compound `Cc1cccc2c1C(=CNc1ccc(OCC3CCCN(C)C3)cc1)C(=O)N2` (centres unmarked) [Example 278, 4-Methyl-3-{[4-(1-methyl-piperidin-3-ylmethoxy)-phenylamino]-methylene}-1,3-dihydro-indol-2-one] displayed an IC50 in experiment [2] of 80 nM.

Regarding `CN1CCCC(COc2ccc(NC=C3C(=O)Nc4cc(F)ccc43)cc2)C1` (centres unmarked) [Example 279, 6-Fluoro-3-{[4-(1-methyl-piperidin-3-ylmethoxy)-phenylamino]-methylene}-1,3-dihydro-indol-2-one], the 50% inhibitory concentration (IC50) in experiment [2] came to 160 nM.

Turning to `CN1CCCC(COc2ccc(NC=C3C(=O)Nc4ccccc43)cc2)C1` (centres unmarked) [Example 280, 3-{[4-(1-Methyl-piperidin-3-ylmethoxy)-phenylamino]-methylene}-1,3-dihydro-indol-2-one], 460 nM corresponded to half-maximal inhibition in experiment [2] (IC50).

Turning to `CN1CCCC(COc2ccc(NC=C3C(=O)Nc4ccc(F)cc43)cc2)C1` (centres unmarked) [Example 282, 5-Fluoro-3-{[4-(1-methyl-piperidin-3-ylmethoxy)-phenylamino]-methylene}-1,3-dihydro-indol-2-one], inhibition in experiment [2] was half-maximal at 330 nM (IC50).

Regarding `O=C1Nc2ccccc2C1=CNc1ccc(CCN2CCCCC2)cc1` [Example 284, 3-{[4-(2-Piperidin-1-yl-ethyl)-phenylamino]-methylene}-1,3-dihydro-indol-2-one], 250 nM corresponded to half-maximal inhibition in experiment [2] (IC50).

`Cc1cccc2c1C(=CNc1ccc(CCN3CCCCC3)cc1)C(=O)N2` [Example 286, 4-Methyl-3-{[4-(2-piperidin-1-yl-ethyl)-phenylamino]-methylene}-1,3-dihydro-indol-2-one] yielded an IC50 in experiment [2] of 40 nM.

Take `O=C1Nc2ccc(F)cc2C1=CNc1ccc(CCN2CCCCC2)cc1` [Example 288, 5-Fluoro-3-{[4-(2-piperidin-1-yl-ethyl)-phenylamino]-methylene}-1,3-dihydro-indol-2-one]: the IC50 in experiment [2] turned out to be 330 nM.

The compound `O=C1Nc2cc(F)ccc2C1=CNc1ccc(CCN2CCCCC2)cc1` [Example 289, 6-Fluoro-3-{[4-(2-piperidin-1-yl-ethyl)-phenylamino]-methylene}-1,3-dihydro-indol-2-one] returned an IC50 in experiment [2] of 260 nM.

As to `O=C1Nc2ccccc2C1=CNc1ccc(CN2CCOCC2)cc1` [Example 290, 3-[(4-Morpholin-4-ylmethyl-phenylamino)-methylene]-1,3-dihydro-indol-2-one], the IC50 in experiment [2] stood at 580 nM.

For `Cc1cccc2c1C(=CNc1ccc(CN3CCOCC3)cc1)C(=O)N2` [Example 292, 4-Methyl-3-[(4-morpholin-4-ylmethyl-phenylamino)-methylene]-1,3-dihydro-indol-2-one], the IC50 in experiment [2] is 90 nM.

In the case of `O=C1Nc2ccc(F)cc2C1=CNc1ccc(CN2CCOCC2)cc1` [Example 294, 5-Fluoro-3-[(4-morpholin-4-ylmethyl-phenylamino)-methylene]-1,3-dihydro-indol-2-one], it took 380 nM to reach half-maximal inhibition in experiment [2] (IC50).

In experiment [2], `O=C1Nc2cc(F)ccc2C1=CNc1ccc(CN2CCOCC2)cc1` [Example 295, 6-Fluoro-3-[(4-morpholin-4-ylmethyl-phenylamino)-methylene]-1,3-dihydro-indol-2-one] showed an IC50 of 180 nM.

As for `Cc1cccc2c1C(=CNc1ccc(NCCCN3CCOCC3)cc1)C(=O)N2` [Example 296, 4-Methyl-3-{[4-(3-morpholin-4-yl-propylamino)-phenylamino]-methylene}-1,3-dihydro-indol-2-one], in experiment [2], half-maximal inhibition (IC50) required 140 nM.

Compound `O=C1Nc2ccccc2C1=CNc1ccc(NCCCN2CCOCC2)cc1` [Example 297, 3-{[4-(3-Morpholin-4-yl-propylamino)-phenylamino]-methylene}-1,3-dihydro-indol-2-one] came in with an IC50 in experiment [2] of 390 nM.

`O=C1Nc2cc(F)ccc2C1=CNc1ccc(NCCCN2CCOCC2)cc1` [Example 298, 6-Fluoro-3-{[4-(3-morpholin-4-yl-propylamino)-phenylamino]-methylene}-1,3-dihydro-indol-2-one] had an IC50 in experiment [2] of 340 nM.

In experiment [2], `O=C1Nc2ccc(Cl)cc2C1=CNc1ccc(NCCCN2CCOCC2)cc1` [Example 299, 5-Chloro-3-{[4-(3-morpholin-4-yl-propylamino)-phenylamino]-methylene}-1,3-dihydro-indol-2-one] had an IC50 of 140 nM.

`O=C1Nc2ccc(F)cc2C1=CNc1ccc(NCCCN2CCOCC2)cc1` [Example 300, 5-Fluoro-3-{[4-(3-morpholin-4-yl-propylamino)-phenylamino]-methylene}-1,3-dihydro-indol-2-one] gave an IC50 in experiment [2] of 420 nM.

In experiment [2], `O=C1Nc2ccccc2C1=CNc1ccc(CCN2CCOCC2)cc1` [Example 306, 3-{[4-(2-Morpholin-4-yl-ethyl)-phenylamino]-methylene}-1,3-dihydro-indol-2-one] yielded an IC50 of 620 nM.

`Cc1cccc2c1C(=CNc1ccc(CCN3CCOCC3)cc1)C(=O)N2` [Example 308, 4-Methyl-3-{[4-(2-morpholin-4-yl-ethyl)-phenylamino]-methylene}-1,3-dihydro-indol-2-one] displayed an IC50 in experiment [2] of 120 nM.

`O=C1Nc2ccc(F)cc2C1=CNc1ccc(CCN2CCOCC2)cc1` [Example 310, 5-Fluoro-3-{[4-(2-morpholin-4-yl-ethyl)-phenylamino]-methylene}-1,3-dihydro-indol-2-one]: half-maximal inhibition in experiment [2] (IC50) was put at 230 nM.

In turn, `O=C1Nc2cc(F)ccc2C1=CNc1ccc(CCN2CCOCC2)cc1` [Example 311, 6-Fluoro-3-{[4-(2-morpholin-4-yl-ethyl)-phenylamino]-methylene}-1,3-dihydro-indol-2-one] yielded an IC50 in experiment [2] of 100 nM.
